Blank lines part the entries; values can stand above or below the molecule they belong to.
Experiments:
[1] = Ratio of inhibitory activity against dihydrofolate reductase of rat liver to pneumocystis carinii
[2] = Ratio of inhibitory activity against dihydrofolate reductase of rat liver to Toxoplasma gondii
HCC 2998 = experiment: […] cytotoxic evaluation against colon cancer HCC2998 cell line; type: functional, Homo sapiens
MDA-N = experiment: […] cytotoxic evaluation against breast cancer MDA-N cell line; type: functional, Homo sapiens
SK-MEL-5 = experiment: […] cytotoxic evaluation against melanoma SK-MEL-5 cell line; type: functional, Homo sapiens
LOX IMVI = experiment: […] cytotoxic evaluation against melanoma LOX IMVI cell line; type: functional, Homo sapiens
Dihydrofolate reductase = biological target: T1, Dihydrofolate reductase (Rattus norvegicus, UniProt Q920D2)
T1 sequence (Q920D2 whole entry): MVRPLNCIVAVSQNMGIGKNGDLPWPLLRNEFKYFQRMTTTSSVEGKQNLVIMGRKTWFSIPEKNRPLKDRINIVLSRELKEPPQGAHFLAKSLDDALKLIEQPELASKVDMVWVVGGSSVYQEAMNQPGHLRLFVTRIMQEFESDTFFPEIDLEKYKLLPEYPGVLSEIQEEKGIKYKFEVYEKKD
Description: Inhibition of dihydrofolate reductase from rat liver.

HCT-116 = experiment: In vitro cytotoxic evaluation against colon cancer HCT116 cell line
SF-295 = experiment: […] cytotoxic evaluation against CNS cancer SF-295 cell line; type: functional, Homo sapiens
EKVX = experiment: […] cytotoxic evaluation against human lung cancer EKVX cell line; type: functional
K562 = experiment: […] cytotoxic evaluation against human leukemic K-562 cell line; type: functional
COLO 205 = experiment: […] cytotoxic evaluation against colon cancer COLO 205 cell line; type: functional, Homo sapiens
MDA-MB-435 = experiment: […] cytotoxic evaluation against breast cancer MDA-MB-435 cell line; type: functional, Homo sapiens
MOLT-4 = experiment: […] cytotoxic evaluation against human leukemic Molt-4 cell line; type: functional
Toxoplasma gondii [3] = experiment: Inhibitory activity against cell growth of Toxoplasma gondii measured by the incorporation of [3H]uracil at <=10 uM
Toxoplasma gondii [4] = experiment: Inhibitory activity against cell growth of Toxoplasma gondii measured by the incorporation of [3H]uracil at 7.8 uM
Pneumocystis carinii [5] = experiment: Inhibitory activity against cell growth of pneumocystis carinii measured by direct counting of organisms in the culture supernatant fluid at 50.7 uM
Toxoplasma gondii [6] = experiment: Inhibitory activity against cell growth of Toxoplasma gondii measured by the incorporation of [3H]uracil at 10 uM
Toxoplasma gondii [7] = experiment: Inhibitory activity against cell growth of Toxoplasma gondii measured by the incorporation of [3H]uracil at […]
Pneumocystis carinii [8] = experiment: Inhibitory activity against cell growth of pneumocystis carinii measured by direct counting of organisms in the culture supernatant fluid at 10 uM

Ratio [1]: 0.02
Structure (SMILES): COc1cc(NCc2cnc3nc(N)nc(N)c3c2C)cc(OC)c1OC
Ratio [2]: 0.3

Ratio [1]: 0.7
Structure (SMILES): COc1ccc(OC)c(CN(C)c2cnc3nc(N)nc(N)c3c2)c1
Ratio [2]: 9

IC50 (Dihydrofolate reductase): 4900 nM
Structure (SMILES): Nc1nc(N)c2cc(CNc3ccc4ccccc4c3)cnc2n1
GI50 (HCC 2998): 1100 nM
GI50 (MDA-N): 4400 nM
GI50 (SK-MEL-5): 3200 nM
GI50 (LOX IMVI): 1600 nM
GI50 (HCT-116): 1900 nM
GI50 (SF-295): 8200 nM
GI50 (EKVX): 9000 nM
GI50 (K562): 500 nM
GI50 (COLO 205): 2400 nM
GI50 (MDA-MB-435): 10000 nM
GI50 (MOLT-4): 2000 nM

Structure (SMILES): Nc1nc(N)c2cc(CNc3ccccc3)cnc2n1
Inhibition (Toxoplasma gondii [3]): 0%

IC50 (Dihydrofolate reductase): 560 nM
Structure (SMILES): COc1ccc(NCc2cnc3nc(N)nc(N)c3c2)cc1OC

IC50 (Dihydrofolate reductase): 270 nM
Structure (SMILES): CN(Cc1cnc2nc(N)nc(N)c2c1)c1cc(Cl)c(Cl)c(Cl)c1

IC50 (Dihydrofolate reductase): 790 nM
Structure (SMILES): COc1cccc(NCc2cnc3nc(N)nc(N)c3c2)c1

IC50 (Dihydrofolate reductase): 180 nM
Structure (SMILES): CN(Cc1cnc2nc(N)nc(N)c2c1)c1ccc(Cl)c(Cl)c1

IC50 (Dihydrofolate reductase): 480 nM
Structure (SMILES): Nc1nc(N)c2cc(CNc3ccc(Cl)c(Cl)c3)cnc2n1
GI50 (HCC 2998): 2700 nM
GI50 (MDA-N): 950 nM
GI50 (SK-MEL-5): 1100 nM
GI50 (LOX IMVI): 820 nM
GI50 (HCT-116): 620 nM
GI50 (SF-295): 3800 nM
GI50 (EKVX): 2400 nM
GI50 (K562): 330 nM
GI50 (COLO 205): 1700 nM
GI50 (MDA-MB-435): 1300 nM
GI50 (MOLT-4): 1100 nM

IC50 (Dihydrofolate reductase): 600 nM
Structure (SMILES): Nc1nc(N)c2cc(CNc3cccc4ccccc34)cnc2n1
inhibition at 7.8 µM (Toxoplasma gondii [4]): 50%
inhibition at 50.7 µM (Pneumocystis carinii [5]): 50%

IC50 (Dihydrofolate reductase): 5000 nM
Structure (SMILES): COc1ccc(OC)c(NCc2cnc3nc(N)nc(N)c3c2)c1
inhibition at 10 µM (Toxoplasma gondii [6]): < 50%

IC50 (Dihydrofolate reductase): 395000 nM
Structure (SMILES): CN(Cc1cnc2nc(N)nc(N)c2c1)c1ccccc1

IC50 (Dihydrofolate reductase): 6900 nM
Structure (SMILES): Nc1nc(N)c2cc(CNc3cc(Cl)ccc3Cl)cnc2n1
GI50 (HCC 2998): 3000 nM
GI50 (MDA-N): 3000 nM
GI50 (SK-MEL-5): 2200 nM
GI50 (LOX IMVI): 710 nM
GI50 (HCT-116): 2100 nM
GI50 (SF-295): 4000 nM
GI50 (EKVX): 6600 nM
GI50 (K562): 1600 nM
inhibition at […] (Toxoplasma gondii [7]): 50%
inhibition at 10 µM (Pneumocystis carinii [8]): 88%
GI50 (COLO 205): 2300 nM
GI50 (MDA-MB-435): 2400 nM
GI50 (MOLT-4): 2000 nM

Ratio [1]: 0.07
Structure (SMILES): COc1cc(NCc2ccc3nc(N)nc(N)c3c2C)cc(OC)c1OC
Ratio [2]: 0.3

IC50 (Dihydrofolate reductase): 4600 nM
Structure (SMILES): Nc1nc(N)c2cc(CNc3cc(Cl)c(Cl)c(Cl)c3)cnc2n1
GI50 (HCC 2998): 780 nM
GI50 (MDA-N): 500 nM
GI50 (SK-MEL-5): 350 nM
GI50 (LOX IMVI): 31 nM
GI50 (HCT-116): 740 nM
GI50 (SF-295): 740 nM
GI50 (EKVX): 850 nM
GI50 (K562): 350 nM
GI50 (COLO 205): 310 nM
GI50 (MDA-MB-435): 570 nM
GI50 (MOLT-4): 710 nM
